Laboratory results published in BigSolDB 2.1.

CC(=CC(C)=Nc1c(C)cc(C)cc1C)Nc1c(C)cc(C)cc1C
solubility (mole fraction)
Settings	273.15 K	278.15 K	283.15 K	288.15 K	293.15 K	298.15 K	303.15 K
in THF	0.215	0.233	0.253	0.273	0.295	0.317	0.346
in ethanol	0.00285	0.00317	0.00373	0.00471	0.00561	0.00678	0.00849
in methanol	0.0008	0.00094	0.00117	0.00137	0.00169	0.00205	0.00275
in n-hexane	0.0989	0.106	0.124	0.148	0.181	0.216	0.255
in toluene	0.189	0.211	0.236	0.264	0.295	0.33	0.372
